Reference: US10130633B2, “Compounds” (BAYER PHARMA AKTIENGESELLSCHAFT, priority 2013, dated 2018)
Structures can show the parent of a compound that is named as a salt.

Legend:
[1] = system: constitutive active colorectal cancer cell (CRC) Wnt pathway; assay: HCT116 TOPFlash cellular reporter assay (Super TopFlash luciferase), constitutive active Wnt pathway; assay type: cell-based; conditions: HCT116 TOP reporter cells, 36 hours incubation, luciferase expression
Method: In order to discover and characterize small molecules which inhibit the constitutive active colorectal cancer cell (CRC) Wnt pathway, a cellular reporter assay was employed. […] Stable transfectants were generated by cotransfection with pcDNA3 and selection of stable transfected cells with 1 mg/ml G418.

[2] = system: HCT116 FOP control reporter cell line; assay: HCT116 FOPFlash control reporter assay (FOP control vector, non-functional TCF elements); assay type: cell-based; conditions: HCT116 FOP control reporter cells, 36 hours incubation, luciferase expression
From the text: In a parallel approach, HCT116 cells were cotransfected with the FOP control vector and pcDNA3. The FOP vector is identical to the TOP construct, but it contains instead of functional TCF elements a randomized, non-functional sequence. For this transfection a stable transfected cell line was generated as well.

SMILES	IC50 ([1]; Homo sapiens, HCT-116, 36 h) [nM]	IC50 ([2]; Homo sapiens, HCT-116, 36 h) [nM]	IC50 [1] [nM]	IC50 [2] [nM]
CN1CCN(CC(=O)Nc2cc(C(=O)Nc3ccc(-c4ccccc4F)nc3)ccc2OC(F)(F)F)CC1 [Example 197, N-[6-(2-fluorophenyl)pyridin-3-yl]-3-{[(4-methylpiperazin-1-yl)acetyl]amino}-4-(trifluoromethoxy)benzamide]	1200	34000	–	–
CC(C(=O)Nc1cc(NC(=O)c2ccc(-c3ccccc3F)nc2)ccc1OC(F)(F)F)N1CCOCC1 (stereo not shown) [Example 224, 6-(2-fluorophenyl)-N-[3-{[2-(morpholin-4-yl)propanoyl]amino}-4-(trifluoromethoxy)phenyl] nicotinamide]	–	–	382	≥ 50000
O=C(CN1CC2CCC(C1)O2)Nc1cc(C(=O)Nc2nnc(-c3ccccc3)s2)ccc1OC(F)F [Example 86, 4-(difluoromethoxy)-3-[(8-oxa-3-azabicyclo[3.2.1]oct-3-ylacetyl)amino]-N-(5-phenyl-1,3,4-thiadiazol-2-yl)benzamide]	890	≥ 50000	–	–
CN1CCN(CC(=O)Nc2cc(C(=O)Nc3nnc(-c4ccc(Cl)cc4)s3)ccc2OC(F)(F)F)CC1 [Example 147, N-[5-(4-chlorophenyl)-1,3,4-thiadiazol-2-yl]-3-{[(4-methylpiperazin-1-yl)acetyl]amino}-4-(trifluoromethoxy)benzamide]	2200	≥ 50000	–	–
O=C(CN1C[C@@H]2C[C@H]1CO2)Nc1cc(C(=O)Nc2nnc(-c3ccccc3)s2)ccc1OC(F)(F)F [Example 254, 3-{[(1S,4S)-2-oxa-5-azabicyclo[2.2.1]hept-5-ylacetyl]amino}-N-(5-phenyl-1,3,4-thiadiazol-2-yl)-4-(trifluoromethoxy)benzamide]	4340	≥ 50000	–	–
O=C(CN1CCOCC1)Nc1cc(C(=O)Nc2nnc(-c3ccccc3)s2)ccc1OC(F)F [Example 239, 4-(difluoromethoxy)-3-[(morpholin-4-ylacetyl)amino]-N-(5-phenyl-1,3,4-thiadiazol-2-yl)benzamide]	2890	≥ 50000	–	–
Cn1nc(C(=O)Nc2ccc(OC(F)(F)F)c(NC(=O)CN3CCOCC3)c2)cc1-c1ccccc1 [Example 123, 1-methyl-N-{3-[(morpholin-4-ylacetyl)amino]-4-(trifluoromethoxy)phenyl}-5-phenyl-1H-pyrazole-3-carboxamide]	560	≥ 50000	–	–
CC(C(=O)Nc1cc(C(=O)Nc2nnc(-c3ccccc3)s2)ccc1CS(C)(=O)=O)N1CCN(C)CC1 (stereo not shown) [Example 232, 3-{[2-(4-methylpiperazin-1-yl)propanoyl]amino}-4-[(methylsulfonyl)methyl]-N-(5-phenyl-1,3,4-thiadiazol-2-yl)benzamide]	–	–	2200	≥ 50000
CN1CCN(CC(=O)Nc2cc(C(=O)Nc3nnc(-c4ccccc4)s3)ccc2Cl)CC1 [Example 173, 4-chloro-3-{[(4-methylpiperazin-1-yl)acetyl]amino}-N-(5-phenyl-1,3,4-thiadiazol-2-yl)benzamide]	520	≥ 50000	–	–
O=C(CN1CCOCC1)Nc1cc(C(=O)Nc2nnc(-c3ccc([N+](=O)[O-])cc3)s2)ccc1OC(F)(F)F [Example 97, 3-[(morpholin-4-ylacetyl)amino]-N-[5-(4-nitrophenyl)-1,3,4-thiadiazol-2-yl]-4-(trifluoromethoxy)benzamide]	1930	≥ 50000	–	–
COc1ccc(C(=O)Nc2ccc(-c3ccccc3F)nc2)cc1NC(=O)C1(N2CCOCC2)CCC1 [Example 82, N-[6-(2-fluorophenyl)pyridin-3-yl]-4-methoxy-3-({[1-(morpholin-4-yl)cyclobutyl]carbonyl}amino)benzamide]	2550	≥ 50000	–	–
CC(C(=O)Nc1cc(C(=O)Nc2ccc(-c3cc(F)cc(F)c3)nc2)ccc1OC(F)(F)F)N1CCOCC1 (stereo not shown) [Example 221, N-[6-(3,5-difluorophenyl)pyridin-3-yl]-3-{[2-(morpholin-4-yl)propanoyl]amino}-4-(trifluoromethoxy)benzamide]	–	–	235	12200
O=C(CN1CCOCC1)Nc1cc(C(=O)Nc2nc(-c3ccccc3)no2)ccc1OC(F)(F)F [Example 125, 3-[(morpholin-4-ylacetyl)amino]-N-(3-phenyl-1,2,4-oxadiazol-5-yl)-4-(trifluoromethoxy)benzamide]	1700	≥ 50000	–	–
O=C(Nc1nnc(-c2ccccc2)s1)c1ccc(F)c(NC(=O)C2(N3CCOCC3)CC2)c1 [Example 78, 4-fluoro-3-({[1-(morpholin-4-yl)cyclopropyl]carbonyl}amino)-N-(5-phenyl-1,3,4-thiadiazol-2-yl)benzamide]	508	≥ 50000	–	–
CC(C(=O)Nc1cc(NC(=O)c2ccc(-c3cccc(F)c3)nc2)ccc1OC(F)(F)F)N1C[C@@H]2C[C@H]1CO2 (relative stereo) [Example 222, 6-(3-fluorophenyl)-N-[3-({(2S*)-2-[(1S,4S)-2-oxa-5-azabicyclo[2.2.1]hept-5-yl]propanoyl}amino)-4-(trifluoromethoxy)phenyl] nicotinamide]	–	–	263	15200
O=C(CN1CCN(C2CC2)CC1)Nc1cc(C(=O)Nc2nnc(-c3ccccc3)s2)ccc1Br [Example 253, 4-bromo-3-{[(4-cyclopropylpiperazin-1-yl)acetyl]amino}-N-(5-phenyl-1,3,4-thiadiazol-2-yl)benzamide]	4040	≥ 50000	–	–
CC(C(=O)Nc1cc(NC(=O)c2ccc(-c3ccccc3F)nc2)ccc1OC(F)(F)F)N1CC2CCC(C1)O2 (stereo not shown) [Example 212, 6-(2-fluorophenyl)-N-[3-{[2-(8-oxa-3-azabicyclo[3.2.1]oct-3-yl)propanoyl]amino}-4-(trifluoromethoxy)phenyl] nicotinamide]	–	–	180	≥ 50000
CC(C(=O)Nc1cc(C(=O)Nc2nnc(-c3ccccc3)s2)ccc1C(F)(F)F)N1CCOCC1 (stereo not shown) [Example 128, 3-{[2-(morpholin-4-yl)propanoyl]amino}-N-(5-phenyl-1,3,4-thiadiazol-2-yl)-4-(trifluoromethyl)benzamide]	710	≥ 50000	–	–
CSc1ccc(C(=O)Nc2ccc(-c3ccccc3F)nc2)cc1NC(=O)CN1CCOCC1 [Example 138, N-[6-(2-fluorophenyl)pyridin-3-yl]-4-(methylsulfanyl)-3-[(morpholin-4-ylacetyl)amino]benzamide]	150	≥ 50000	–	–
O=C(Cn1cccn1)Nc1cc(C(=O)Nc2ccc(-c3ccccc3F)nc2)ccc1OC1CC1 [Example 141, 4-(cyclopropyloxy)-N-[6-(2-fluorophenyl)pyridin-3-yl]-3-[(1H-pyrazol-1-ylacetyl)amino]benzamide]	680	≥ 50000	–	–
CN(C)C1(C(=O)Nc2cc(C(=O)Nc3ccc(-c4cc(F)cc(F)c4)nc3)ccc2OC(F)(F)F)CC1 [Example 251, N-[6-(3,5-difluorophenyl)pyridin-3-yl]-3-({[1-(dimethylamino)cyclopropyl]carbonyl}amino)-4-(trifluoromethoxy)benzamide]	220	16000	–	–
O=C(Nc1ccc([N+](=O)[O-])cc1Cl)c1cc(Cl)ccc1O [Ref., niclosamide, reference compound]	1380	3100	–	–
C[C@H]1CN(C)CCN1CC(=O)Nc1cc(C(=O)Nc2ccc(-c3ccccc3F)nc2)ccc1OC(F)(F)F [Example 162, 3-({[(2S)-2,4-dimethylpiperazin-1-yl]acetyl}amino)-N-[6-(2-fluorophenyl)pyridin-3-yl]-4-(trifluoromethoxy)benzamide]	85.5	≥ 50000	–	–
CC(C(=O)Nc1cc(C(=O)Nc2ncc(-c3ccccc3)s2)ccc1C(C)(C)C)N1CCOCC1 (stereo not shown) [Example 143, 4-tert-butyl-3-{[2-(morpholin-4-yl)propanoyl]amino}-N-(5-phenyl-1,3-thiazol-2-yl)benzamide]	204	≥ 50000	–	–
CC(C(=O)Nc1cc(C(=O)Nc2nnc(-c3ccccc3)s2)ccc1CS(C)(=O)=O)N1CCN(C)CC1 (stereo not shown) [Example 88, 3-{[2-(4-methylpiperazin-1-yl)propanoyl]amino}-4-[(methylsulfonyl)methyl]-N-(5-phenyl-1,3,4-thiadiazol-2-yl)benzamide]	–	–	417	≥ 50000
CC(C(=O)Nc1cc(C(=O)Nc2nnc(-c3ccccc3)s2)ccc1CS(C)(=O)=O)N1CCOCC1 (stereo not shown) [Example 87, 4-[(methylsulfonyl)methyl]-3-{[2-(morpholin-4-yl)propanoyl]amino}-N-(5-phenyl-1,3,4-thiadiazol-2-yl)benzamide]	858	48000	–	–
CN1CCN(CC(=O)Nc2cc(C(=O)Nc3nnc(-c4ccccc4F)s3)ccc2OC(F)(F)F)CC1 [Example 150, N-[5-(2-fluorophenyl)-1,3,4-thiadiazol-2-yl]-3-{[(4-methylpiperazin-1-yl)acetyl]amino}-4-(trifluoromethoxy)benzamide]	76	≥ 50000	–	–
CN(C(=O)CN1CCOCC1)c1cc(C(=O)Nc2ccc(-c3ccccc3)nc2)ccc1OC(F)(F)F [Example 228, 3-[methyl(morpholin-4-ylacetyl)amino]-N-(6-phenylpyridin-3-yl)-4-(trifluoromethoxy)benzamide]	2870	29000	–	–
O=C(Nc1nnc(-c2ccccc2)s1)c1ccc(Cl)c(NC(=O)C2(N3CCN(C4CC4)CC3)CC2)c1 [Example 262, 4-chloro-3-({[1-(4-cyclopropylpiperazin-1-yl)cyclopropyl]carbonyl}amino)-N-(5-phenyl-1,3,4-thiadiazol-2-yl)benzamide trifluoroacetate (1:1)]	195	≥ 50000	–	–
